Tests used:
Settings in all cases: incubation time: 72 h
BT-474 [1] = experiment: normalised viability (% of control), CellTiter-Blue; higher = more viable cells (about 100 = DMSO control)
Procedure, shortened: (§1)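 Each entry is normalised viability at a single listed concentration within a series. It comes from breast cancer cell lines incubated 72 h with compound in 384-well plates, then measured with CellTiter-Blue fluorescence at 560/590 nm. Every plate was normalised between vehicle (100) and a positive kill control (0).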

CAL-120 [2] = experiment: as above
Procedure, shortened: as §1

CAL-148 = experiment: as above
Procedure, shortened: as §1

CAL-85-1 [3] = experiment: as above
Procedure, shortened: as §1

HCC1143 [4] = experiment: as above
Procedure, shortened: as §1

HCC1599 [5] = experiment: as above
Procedure, shortened: as §1

HDQ-P1 [6] = experiment: as above
Procedure, shortened: as §1

MDA-MB-231 [7] = experiment: as above
Procedure, shortened: as §1

MDA-MB-436 = experiment: as above
Procedure, shortened: as §1

MDA-MB-453 [8] = experiment: as above
Procedure, shortened: as §1

MDA-MB-468 [9] = experiment: as above
Procedure, shortened: as §1

MFM-223 [10] = experiment: as above
Procedure, shortened: as §1

SK-BR-3 [11] = experiment: as above
Procedure, shortened: as §1

BT-474 [12] = experiment: drug sensitivity score (DSS), CellTiter-Blue viability (DSS (AUC-based score)); higher = stronger viability inhibition; extreme values may be limits of the assay
Experimental: (§2)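 DSRT with the CellTiter-Blue (resazurin reduction) viability readout, fluorescence 560/590 nm, 72 h incubation. Plates were normalised to DMSO and benzethonium chloride controls. DSS is computed from the area under the fitted dose-response curve (5 or 9 concentrations).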

BT-549 = experiment: as above
Experimental: as §2

CAL-120 [13] = experiment: as above
Experimental: as §2

CAL-85-1 [14] = experiment: as above
Experimental: as §2

DU-4475 = experiment: as above
Experimental: as §2

HCC1143 [15] = experiment: as above
Experimental: as §2

HCC1599 [16] = experiment: as above
Experimental: as §2

HCC1937 = experiment: as above
Experimental: as §2

HDQ-P1 [17] = experiment: as above
Experimental: as §2

Hs578T = experiment: as above
Experimental: as §2

MDA-MB-231 [18] = experiment: as above
Experimental: as §2

MDA-MB-453 [19] = experiment: as above
Experimental: as §2

MDA-MB-468 [20] = experiment: as above
Experimental: as §2

MFM-223 [21] = experiment: as above
Experimental: as §2

SK-BR-3 [22] = experiment: as above
Experimental: as §2

| Compound | normalised viability (BT-474 [1]; 100 nM) [%] | normalised viability (CAL-120 [2]; 100 nM) [%] | normalised viability (CAL-148; 10 nM) [%] | normalised viability (CAL-85-1 [3]; 10 nM) [%] | normalised viability (HCC1143 [4]; 100 nM) [%] | drug sensitivity score (BT-474 [12]) | drug sensitivity score (BT-549) | drug sensitivity score (CAL-120 [13]) | drug sensitivity score (CAL-85-1 [14]) | drug sensitivity score (DU-4475) | drug sensitivity score (HCC1143 [15]) | drug sensitivity score (HCC1599 [16]) | drug sensitivity score (HCC1937) | drug sensitivity score (HDQ-P1 [17]) | drug sensitivity score (Hs578T) | drug sensitivity score (MDA-MB-231 [18]) | drug sensitivity score (MDA-MB-453 [19]) | drug sensitivity score (MDA-MB-468 [20]) | drug sensitivity score (MFM-223 [21]) | drug sensitivity score (SK-BR-3 [22]) | also measured |
| --- | --- | --- | --- | --- | --- | --- | --- | --- | --- | --- | --- | --- | --- | --- | --- | --- | --- | --- | --- | --- | --- |
| O=NN(CCCl)C(=O)NC1CCCCC1 [Lomustine] | 111 | 97 | 93.9 | 93.8 | 93.2 | 0 | 0 | 0 | 0 | 0 | 0 | 0 | 0 | 0 | 0 | 0 | 0 | 0 | 0 | 0 | normalised viability (HCC1599 [5]; 100 nM): 101%; normalised viability (HDQ-P1 [6]; 10 nM): 113%; normalised viability (MDA-MB-231 [7]; 100 nM): 100%; normalised viability (MDA-MB-436; 100 nM): 102%; normalised viability (MDA-MB-453 [8]; 10 nM): 95.5%; normalised viability (MDA-MB-468 [9]; 100 nM): 101%; normalised viability (MFM-223 [10]; 100 nM): 89.5%; normalised viability (SK-BR-3 [11]; 100 nM): 97.5% |
| O=C(O)CC[C@H]1CC[C@@](c2cc(F)ccc2F)(S(=O)(=O)c2ccc(Cl)cc2)CC1 [MK-0752] | – | – | – | – | – | 0 | 0 | 0 | 0 | 0 | 0 | 2.93 | 0 | 0 | 0 | 0 | 0 | 0 | 0 | 0 | normalised viability (BT-474 [1]; 10 nM): 114%; normalised viability (CAL-120 [2]; 10 nM): 95.1%; normalised viability (CAL-148; 1 nM): 107%; normalised viability (CAL-85-1 [3]; 1 nM): 96%; normalised viability (HCC1143 [4]; 10 nM): 98%; normalised viability (HCC1599 [5]; 10 nM): 106%; normalised viability (HDQ-P1 [6]; 1 nM): 96.2%; normalised viability (MDA-MB-231 [7]; 10 nM): 98%; normalised viability (MDA-MB-436; 10 nM): 103%; normalised viability (MDA-MB-453 [8]; 1 nM): 111%; normalised viability (MDA-MB-468 [9]; 10 nM): 97.6%; normalised viability (MFM-223 [10]; 10 nM): 97.1%; normalised viability (SK-BR-3 [11]; 10 nM): 93.3% |
| NC1(c2ccc(-c3nc4ccn5c(=O)[nH]nc5c4cc3-c3ccccc3)cc2)CCC1 [MK-2206] | – | – | – | – | – | 3.69 | 0 | 0 | 0 | 0 | 0 | 0 | 0 | 0 | 0 | 0 | 4.04 | 2.36 | 4.16 | 6.38 | normalised viability (BT-474 [1]; 10 nM): 112%; normalised viability (CAL-120 [2]; 10 nM): 106%; normalised viability (CAL-148; 1 nM): 105%; normalised viability (CAL-85-1 [3]; 1 nM): 92.2%; normalised viability (HCC1143 [4]; 10 nM): 121%; normalised viability (HCC1599 [5]; 10 nM): 97.4%; normalised viability (HDQ-P1 [6]; 1 nM): 103%; normalised viability (MDA-MB-231 [7]; 10 nM): 104%; normalised viability (MDA-MB-436; 10 nM): 107%; normalised viability (MDA-MB-453 [8]; 1 nM): 117%; normalised viability (MDA-MB-468 [9]; 10 nM): 109%; normalised viability (MFM-223 [10]; 10 nM): 105%; normalised viability (SK-BR-3 [11]; 10 nM): 79% |
| NC(=O)c1cccc2cn(-c3ccc([C@@H]4CCCNC4)cc3)nc12 [MK-4827] | 104 | 87.3 | 98.5 | 101 | 87.2 | 0 | 0 | 0 | 0 | 6.73 | 3.49 | 0 | 8.54 | 0 | 0 | 0 | 0 | 0 | 0 | 0 | normalised viability (HCC1599 [5]; 100 nM): 93.8%; normalised viability (HDQ-P1 [6]; 10 nM): 105%; normalised viability (MDA-MB-231 [7]; 100 nM): 97.5%; normalised viability (MDA-MB-436; 100 nM): 95.1%; normalised viability (MDA-MB-453 [8]; 10 nM): 91.1%; normalised viability (MDA-MB-468 [9]; 100 nM): 95%; normalised viability (MFM-223 [10]; 100 nM): 90.6%; normalised viability (SK-BR-3 [11]; 100 nM): 78% |
| N[C@@H](Cc1ccc(N(CCCl)CCCl)cc1)C(=O)O [Melphalan] | – | – | – | – | – | 0 | 0 | 0 | 0 | 0 | 0 | 0 | 9.6 | 0 | 3.68 | 0 | 0 | 0 | 0 | 0 | normalised viability (BT-474 [1]; 9.9 nM): 99.3%; normalised viability (CAL-120 [2]; 9.9 nM): 73.6%; normalised viability (CAL-148; 0.99 nM): 92.4%; normalised viability (CAL-85-1 [3]; 0.99 nM): 87.5%; normalised viability (HCC1143 [4]; 9.9 nM): 74.2%; normalised viability (HCC1599 [5]; 9.9 nM): 96.1%; normalised viability (HDQ-P1 [6]; 0.99 nM): 97.6%; normalised viability (MDA-MB-231 [7]; 9.9 nM): 99.8%; normalised viability (MDA-MB-436; 9.9 nM): 87.2%; normalised viability (MDA-MB-453 [8]; 0.99 nM): 108%; normalised viability (MDA-MB-468 [9]; 9.9 nM): 108%; normalised viability (MFM-223 [10]; 9.9 nM): 89.9%; normalised viability (SK-BR-3 [11]; 9.9 nM): 86.9% |
| Cc1c(C(=O)Nc2ccc(N3C[C@@H](C)O[C@@H](C)C3)nc2)cccc1-c1ccc(OC(F)(F)F)cc1 [NVP-LDE225] | 93.3 | 99.7 | 108 | 102 | 92.5 | 0 | 0 | 0 | 0 | 0 | 0 | 0 | 0 | 0 | 0 | 0 | 0 | 0 | 0 | 0 | normalised viability (HCC1599 [5]; 100 nM): 102%; normalised viability (HDQ-P1 [6]; 10 nM): 83.5%; normalised viability (MDA-MB-231 [7]; 100 nM): 99%; normalised viability (MDA-MB-436; 100 nM): 73.2%; normalised viability (MDA-MB-453 [8]; 10 nM): 110%; normalised viability (MDA-MB-468 [9]; 100 nM): 113%; normalised viability (MFM-223 [10]; 100 nM): 108%; normalised viability (SK-BR-3 [11]; 100 nM): 71.1% |
